According to US11866457B2, “Clearing agent” (SAVID THERAPEUTICS INC., priority 2016, dated 2024):

How the values were obtained:
[1] = test system: [^125I]ST03-Cupid; assay: In vivo test of clearing agent: change in blood radioactivity concentration of [^125I]ST03-Cupid in mice; conditions: mouse blood
Method: In order to examine the efficacy of Compound 14 (Zephyr1), ^125I-labeled ST03-Cupid ([^125I]ST03-Cupid) was administered to male mice via single intravenous administration, and the blood was then collected over time, so that a change in the blood radioactivity concentration caused by administration of Compound 14 was measured. Specifically, four experimental groups were prepared. In a first group, Compound 14 was administered to the mice via single intravenous administration, 6 hours after administration of [^125I]ST03-Cupid. A second group was defined as a control group for the first group, and a normal saline was administered to the mice, instead of Compound 14. In a third group, Compound 14 was administered to the mice via single intravenous administration, 24 hours after administration of [^125I]ST03-Cupid. A fourth group was defined as a control group for the third group, and a normal saline was administered to the mice, instead of Compound 14.
Specifically, with regard to administration of [^125I]ST03-Cupid to the mice, 100 μL of [^125I]ST03-Cupid was administered in a concentration of 50 kBq/100 μL to the mice via single intravenous administration ([…]/50 kBq/100 μL injection). Thereafter, 6 hours or 24 hours after administration of [^125I]ST03-Cupid, Compound 14 was administered to the mice in an amount of 2 times the number of moles of the administered ST03-Cupid ([…]/100 μL injection), or 100 μL of a normal saline was administered to the mice. It is to be noted that the experiments were carried out using the mice groups (n=4 to 6 in each group).
The blood was collected from the orbital vein of the mice over time. When Compound 14 was administered to the mice 6 hours after administration of [^125I]ST03-Cupid, blood collection was carried out with the following time intervals: first blood collection—10 minutes after administration of [^125I]ST03-Cupid, second blood collection—6 hours after administration of [^125]ST03-Cupid, third blood collection—10 minutes after administration of Saline or Compound 14, fourth blood collection—1 hour after administration of Saline or Compound 14, fifth blood collection—3 hours after administration of Saline or Compound 14, sixth blood collection—18 hours after administration of Saline or Compound 14, and seventh blood collection—24 hours after administration of Saline or Compound 14. Likewise, when Compound 14 was administered to the mice 24 hours after administration of [^125I]ST03-Cupid, blood collection was carried out with the following time intervals: first blood collection—10 minutes after administration of [^125]ST03-Cupid, second blood collection—24 hours after administration of [^125I]ST03-Cupid, third blood collection—10 minutes after administration of Saline or Compound 14, fourth blood collection—1 hour after administration of Saline or Compound 14, fifth blood collection—3 hours after administration of Saline or Compound 14, sixth blood collection—6 hours after administration of Saline or Compound 14, and seventh blood collection—24 hours after administration of Saline or Compound 14. The collected blood (40 to 50 μL) was measured using a gamma counter. The counting rate (dmp) measured with the gamma counter was divided by the amount of blood collected (g) to calculate a counting rate (dpm/g of blood) per unit weight, and the results were shown in a graph. Likewise, the counting rate (dmp) measured with the gamma counter was divided by the counting rate of [^125I]ST03-Cupid before administration, so as to calculate the remaining percentage (% ID/g of blood) in the dose after the administration. The results were shown in a graph. The measurement results are shown in Tables 1 and 2 and FIGS. 1 and 2.

[2] = target: T1, Cupid (Streptomyces avidinii, UniProt P22629, Y46S/N47D/S51D/S69N/N73G/Y107S/R108K/E125D/R127K/E140N); assay: Affinity to Cupid, SPR kinetics analysis (Biacore T200, Single Cycle Kinetics, CEA-Cupid immobilized); assay type: binding; conditions: for ka / kd: Bivalent Analyte fit
T1 construct: fused on or other part: Anti-CEACAM5 scFv antibody ST03 fused to Cupid as the molecular probe (ST03-Cupid = anti-CEA-Cupid = 'CEA-Cupid'); 6xHis tag at the C-terminus
Method: (§1) In order to examine the affinity of Zephyr1 and Zephyr2 to Cupid, kinetics analysis was carried out using SPR (Biacore T200). Specifically, using Amin Coupling Kit (GE Healthcare), CEA-Cupid serving as a ligand was immobilized on Sensor Chip CM5 (GE Healthcare), targeting 5000RU. Thereafter, using 5 two-fold serial dilutions (from 10 nM) of Zephyr1 or Zephyr2 serving as an analyte, kinetics analysis was carried out according to a Single Cycle Kinetics method. Thereafter, using Biacore T200 Evaluation Software, version 2.0 (GE Healthcare), the obtained data were fitted at a Bivalent Analyte mode, and kinetic parameters were calculated. As a result, Zephyr1: ka=3.792E+4, kd=4.42E−6 (FIG. 3A); and Zephyr2: ka=1.578E+7, kd=0.09339 (FIG. 3B).

[3] = target: T2, Cupid (Streptomyces avidinii, UniProt P22629, E125D/E140N/N47D/N73G/R108K/R127K/S51D/S69N/Y107S/Y46S); assay: as above; assay type: binding
T2 construct: fused on or other part: Anti-CEACAM5 scFv antibody ST03 fused to Cupid as the molecular probe (ST03-Cupid = anti-CEA-Cupid = 'CEA-Cupid'); 6xHis tag at the C-terminus
Method: as §1

[4] = test system: CEA-Cupid; assay: Clearance of Cupid by Zephyr2 in vivo, xenograft mouse models, blood radioactivity of Psyche-B-DOTA(^111In); conditions: Zephyr2 20 hours after CEA-Cupid; Psyche-B-DOTA(111In) two hours later; blood collected 4 hours after labeling substance
Method: A 100 mM acetate buffer was added to ^111InCl3 solution 37 MBq (approx. […]) in the same volume as the ^111InCl3 solution, and the pH of the mixed solution was then adjusted to pH 4 to 5. Psyche-B-DOTA was added to the mixed solution at a molar ratio of 1000 times (10 nmol), such that the concentration of DMSO became 0.2% or more. The thus obtained mixture was heated at 80° C. for 15 minutes or more. Thereafter, the reaction mixture was analyzed according to HPLC, and the radiochemical purity was confirmed. The mixture was diluted with a 10 mM acetate buffer to a concentration of 1 nmol/mL, and the obtained solution was used as an administration solution.
Whether or not Cupid existing in the blood of a living body is cleared by Zephyr2 was examined by performing an experiment using xenograft mouse models. The experiment was carried out using three mice from a Zephyr2 administration group and three mice from a non-administration group (control group). Specifically, […] CEA-Cupid was administered to the xenograft mouse models, and 20 hours after the administration of CEA-Cupid, 100 μmol Zephyr2 was administered (the control group was untreated). […] Subsequently, 4 hours after the administration of the labeling substance, the blood was collected, and the amount of radioactivity therein was then measured using a gamma counter. […]

[5] = CA given 6 hr after [125I]ST03-Cupid, time 0.17 hr (before CA)
[6] = CA given 6 hr after [125I]ST03-Cupid, time 5.92 hr (before CA)
[7] = CA given 6 hr after [125I]ST03-Cupid, time 6.17 hr
[8] = CA given 6 hr after [125I]ST03-Cupid, time 7 hr
[9] = CA given 6 hr after [125I]ST03-Cupid, time 9 hr
[10] = CA given 6 hr after [125I]ST03-Cupid, time 24 hr
[11] = CA given 6 hr after [125I]ST03-Cupid, time 30 hr
[12] = CA given 24 hr after [125I]ST03-Cupid, time 0.17 hr (before CA)
[13] = CA given 24 hr after [125I]ST03-Cupid, time 23.92 hr (before CA)
[14] = CA given 24 hr after [125I]ST03-Cupid, time 24.17 hr
[15] = CA given 24 hr after [125I]ST03-Cupid, time 25 hr
[16] = CA given 24 hr after [125I]ST03-Cupid, time 27 hr
[17] = CA given 24 hr after [125I]ST03-Cupid, time 30 hr
[18] = CA given 24 hr after [125I]ST03-Cupid, time 48 hr

T1 sequence (P22629 whole entry Y46S/N47D/S51D/S69N/N73G/Y107S/R108K/E125D/R127K/E140N, looked up, the tested form may be a part): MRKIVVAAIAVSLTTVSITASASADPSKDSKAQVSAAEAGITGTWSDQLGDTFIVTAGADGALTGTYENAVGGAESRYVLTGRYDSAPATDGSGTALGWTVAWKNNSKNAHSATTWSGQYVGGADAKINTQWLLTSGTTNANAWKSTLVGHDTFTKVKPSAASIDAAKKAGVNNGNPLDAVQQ
T2 sequence (P22629 whole entry E125D/E140N/N47D/N73G/R108K/R127K/S51D/S69N/Y107S/Y46S, looked up, the tested form may be a part): as the sequence (P22629 whole entry Y46S/N47D/S51D/S69N/N73G/Y107S/R108K/E125D/R127K/E140N, looked up, the tested form may be a part) above

`CC(=O)NC1C(SCCC(=O)NCCOCCOCCNC(=O)CCC(CCC(=O)NCCOCCOCCNC(=O)CCSC2OC(CO)C(O)C(O)C2NC(C)=O)(CCC(=O)NCCOCCOCCNC(=O)CCSC2OC(CO)C(O)C(O)C2NC(C)=O)NC(=O)OCCOCCOCCn2cc(COCCNC(=O)c3cc(NC(=O)CCCCCNC(=O)CCCC[C@@H]4SC[C@@H]5NC(=N)N[C@@H]54)cc(NC(=O)CCCCCNC(=O)CCCC[C@@H]4SC[C@@H]5NC(=N)N[C@@H]54)c3)nn2)OC(CO)C(O)C1O` (stereo partly drawn) [Compound 14] was tested, and the “% Injected Dose/g of blood” value [1, 5] was 31.7 ± 3.6 % Injected Dose/g of blood, the Radioactivity concentration [1, 5] was 599504 ± 68046 dpm/g and the “% Injected Dose/g of blood” value [1, 6] was 16.6 ± 2.2 % Injected Dose/g of blood. For the same molecule, the Radioactivity concentration [1, 6] was 312854 ± 42382 dpm/g, the “% Injected Dose/g of blood” value [1, 7] was 6.2 ± 1.8 % Injected Dose/g of blood and the Radioactivity concentration [1, 7] was 117840 ± 34798 dpm/g. For the same molecule, the “% Injected Dose/g of blood” value [1, 8] was 4.8 ± 1.6 % Injected Dose/g of blood, the Radioactivity concentration [1, 8] was 90787 ± 29628 dpm/g and the “% Injected Dose/g of blood” value [1, 9] was 4.4 ± 1.6 % Injected Dose/g of blood. For the same molecule, the Radioactivity concentration [1, 9] was 83236 ± 29606 dpm/g, the “% Injected Dose/g of blood” value [1, 10] was 2.4 ± 0.8 % Injected Dose/g of blood and the Radioactivity concentration [1, 10] was 46178 ± 15340 dpm/g. For the same molecule, the “% Injected Dose/g of blood” value [1, 11] was 2.0 ± 0.7 % Injected Dose/g of blood, the Radioactivity concentration [1, 11] was 37023 ± 13443 dpm/g and the “% Injected Dose/g of blood” value [1, 12] was 33.8 ± 2.5 % Injected Dose/g of blood. For the same molecule, the Radioactivity concentration [1, 12] was 638296 ± 48098 dpm/g, the “% Injected Dose/g of blood” value [1, 13] was 6.2 ± 0.9 % Injected Dose/g of blood and the Radioactivity concentration [1, 13] was 116201 ± 17325 dpm/g. The “% Injected Dose/g of blood” value [1, 14] was 0.4 ± 0.1 % Injected Dose/g of blood, the Radioactivity concentration [1, 14] was 8368 ± 1872 dpm/g and the “% Injected Dose/g of blood” value [1, 15] was 0.4 ± 0.1 % Injected Dose/g of blood. The Radioactivity concentration [1, 15] was 7381 ± 1798 dpm/g, the “% Injected Dose/g of blood” value [1, 16] was 0.6 ± 0.1 % Injected Dose/g of blood and the Radioactivity concentration [1, 16] was 10748 ± 2533 dpm/g. For the same molecule, the “% Injected Dose/g of blood” value [1, 17] was 0.6 ± 0.2 % Injected Dose/g of blood, the Radioactivity concentration [1, 17] was 12088 ± 3191 dpm/g and the “% Injected Dose/g of blood” value [1, 18] was 0.5 ± 0.1 % Injected Dose/g of blood. The Radioactivity concentration [1, 18] was 9001 ± 1942 dpm/g, the ka ([2]; SPR) was 3.792E+4 and the kd ([2]; SPR) was 4.42E−6. For the same molecule, the Kd [3] was 0.117 nM.

Work on `COC(=O)C(CCCCNC(=O)c1cc(NC(=O)NCCOCCOCCNC(=O)CCc2cn(CCOCCOCCOC(=O)NC(CCC(=O)NCCOCCOCCNC(=O)CCSC3OC(CO)C(O)C(O)C3NC(C)=O)(CCC(=O)NCCOCCOCCNC(=O)CCSC3OC(CO)C(O)C(O)C3NC(C)=O)CCC(=O)NCCOCCOCCNC(=O)CCSC3OC(CO)C(O)C(O)C3NC(C)=O)nn2)cc(C(=O)NCCCCC(NC(=O)CCCCC2SCC3NC(=N)NC32)C(=O)OC)c1)NC(=O)CCCCC1SCC2NC(=N)NC21` (stereo not drawn) [Compound 25] yielded a ka ([2]; SPR) of 1.578E+7, a kd ([2]; SPR) of 0.09339 and a Kd ([2]; SPR, printed as KD=ka/kd) of 5.88 nM. The “affinity to Cupid reduced in comparison to that of Zephyr1” value ([2]; ratio of KD values) was “approximately one fiftieth” and the “amount of radioactivity in blood” value [4] was 4.51 % ID/g.
